Reference: patent US11458138B2 (Novartis AG, priority 2017, dated 2022)

How the values were obtained:
[1] = biological target: Human LATS1 kinase domain protein (Homo sapiens (Human), UniProt O95835); experiment: LATS1 Biochemical Caliper Assay (Compound Examples 291-335); details: Caliper EZ Reader
Description: The LATS1 biochemical Caliper assay was performed as following.
Human LATS1 kinase domain protein was purchased from Carnabio (catalogue number 01-123; lot 15CBS-0098D). Human LATS1, catalytic domain [589-1130(end) amino acids of accession number NP_004681.1] was co-expressed as N-terminal GST-fusion protein (90 kDa) with human His-tagged MOBKL1A [1-216(end) amino acids of accession number NP_775739.1] using baculovirus expression system. GST-LATS1 was purified by using glutathione sepharose chromatography. The substrate (Fluo-SGKtide; Peptide for LATS1; lot BS-41067) has the following sequence: 5-Fluo-Nva-[…]-amide (SEQ ID NO: 27) x TFA and was purchased from Biosyntan.
The reaction is performed in reaction buffer containing 50 mM Hepes pH 7,5; 0.02% Tween20; 0.02% BSA; 1 mM DTT; 10 uM Na3VO4 and 10 mM beta-Glycerolphosphat and fresh added 1 mM MgCl2 and qsp H2O.
The substrate solution (2× conc.) in Reaction Buffer contains 300 μM ATP and 4 μM Fluo-SGKtide.
The kinase solution (2× conc.) in Reaction Buffer contains 20 nM LATS1 kinase. 4.5 μL of 2× conc. Kinase solution, 50 nL of 1.8 mM compounds and 4.5 μL of substrate solution were added into 384-well plates black small volume from Greiner and incubated at 32° C. for 1 hour. 15 μL of stop buffer containing 100 mM Hepes pH 7,5; 5% DMSO; 0.1% Coating reagent; 10 mM EDTA and 0.02% Brij35 and qsp H2O to each well to terminate the reaction.
Substrates and products were electrophoretically separated using the microfluidic-based Caliper EZ Reader System (Caliper Life Sciences) using a 12 sipper chip (cat 760404). The separation takes place in Coating Buffer (idem Stop buffer) and containing 0.1% Coating reagent CR3 and 0.5% coating reagent CR8 (Perkin Elmer).
Plates were read using a LED with an excitation at 488 nm and a detection at 520 nm to 5 quantify the fluorescence intensity.

[2] = tested on: Phospho-YAP (Ser127) in JHH-5 cells; experiment: pYAP HTRF Assay (JHH-5 cells); type: cell-based; details: 2 hours
Method in brief: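 Phospho-YAP read by HTRF (665 nm/620 nm ×10000) in lysates after overnight 18 h antibody incubation at room temperature. Compound treatment lasted 2 h at 37 °C, on JHH-5 cells plated 24 h earlier at 24000 per well in William's E medium with 10% FBS.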

[3] = tested on: YAP nuclear translocation in HaCaT cells; experiment: YAP Translocation Assay (HaCaT Cells); type: cell-based, human; details: Homo sapiens, 24 hours
Method in brief: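 HaCaT cells (20,000/well) in DMEM + 10% FBS were plated overnight at 37° C, then exposed to compound for 24 h at 37° C. Cells were fixed with PFA, permeabilized with 0.1% Triton/1.5% BSA and imaged by high-content imaging.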

[4] = tested on: Phospho-YAP (SER127) in HaCaT cells; experiment: pYAP HTRF Assay (HaCaT Cells); type: cell-based, human; details: Homo sapiens, 2 hours
Method in brief: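 Phospho-YAP (Ser127) was measured by HTRF (665 nm/620 nm ratio) in HaCaT cells. Cells were grown 48 hours at 37° C at 5500 cells/well, exposed to compound for 2 hours, and incubated with detection reagents for 20 hrs at room temperature.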

[5] = biological target: Human LATS2 kinase domain protein (Homo sapiens (Human), UniProt Q9NRM7); experiment: LATS2 Biochemical Caliper Assay (Compound Examples 1-290); details: 400 micromolar ATP
Sequence of Human LATS2 kinase domain protein (Q9NRM7 553-1088): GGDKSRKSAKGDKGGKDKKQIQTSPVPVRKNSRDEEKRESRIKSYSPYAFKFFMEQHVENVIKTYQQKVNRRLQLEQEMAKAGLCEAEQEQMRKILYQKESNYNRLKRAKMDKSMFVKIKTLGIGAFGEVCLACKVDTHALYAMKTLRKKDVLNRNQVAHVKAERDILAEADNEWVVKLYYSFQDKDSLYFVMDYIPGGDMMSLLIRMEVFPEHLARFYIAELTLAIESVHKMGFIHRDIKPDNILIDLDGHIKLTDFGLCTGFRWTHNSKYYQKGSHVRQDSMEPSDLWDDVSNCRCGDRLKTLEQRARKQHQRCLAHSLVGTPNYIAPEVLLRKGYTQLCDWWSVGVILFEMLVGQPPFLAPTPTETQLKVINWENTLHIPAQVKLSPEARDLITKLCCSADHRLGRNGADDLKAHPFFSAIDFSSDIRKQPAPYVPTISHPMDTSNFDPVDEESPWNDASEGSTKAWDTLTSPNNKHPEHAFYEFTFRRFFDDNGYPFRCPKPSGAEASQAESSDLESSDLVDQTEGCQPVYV
Sequence of Human LATS2 kinase domain protein (Q7L9L4 whole entry partner, the tested form may be a part): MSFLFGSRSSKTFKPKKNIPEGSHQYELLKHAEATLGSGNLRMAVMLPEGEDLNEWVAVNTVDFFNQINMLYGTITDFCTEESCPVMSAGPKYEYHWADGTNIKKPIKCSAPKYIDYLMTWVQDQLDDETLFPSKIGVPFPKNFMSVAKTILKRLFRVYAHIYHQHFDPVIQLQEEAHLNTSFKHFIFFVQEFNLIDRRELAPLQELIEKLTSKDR
Description: Human LATS2 kinase domain protein was purchased from Carnabio (catalogue number 01-124), which harbors the catalytic domain of amino acids 553-1088, and was co-purified with human His-tagged MOBKL1A (NP_775-739). 5 microlitre of enzyme buffer, 100 nL of compounds and 5 microlitre of localising aid buffer were added into 384-well plates. […] The plates were incubated at 25° C. for 3 hours. 40 microlitre of stop buffer with 25 mM EDTA (NanoSyn) was added to each well to terminate the reaction. Localising aids and products were separated electrophoretically using the microfluidic-based Caliper Labchip 3000 Drug Discovery System (Caliper Life Sciences). Plates were read using blue laser excitation and green fluorescence detection and quantified by fluorescence intensity.

LATS1 = LATS1 (Homo sapiens (Human), UniProt O95835); experiment: LATS1 biochemical assay (Table 1A, Compound Examples 1-290; method in the earlier part)
Sequence of LATS1 (O95835 whole entry, looked up): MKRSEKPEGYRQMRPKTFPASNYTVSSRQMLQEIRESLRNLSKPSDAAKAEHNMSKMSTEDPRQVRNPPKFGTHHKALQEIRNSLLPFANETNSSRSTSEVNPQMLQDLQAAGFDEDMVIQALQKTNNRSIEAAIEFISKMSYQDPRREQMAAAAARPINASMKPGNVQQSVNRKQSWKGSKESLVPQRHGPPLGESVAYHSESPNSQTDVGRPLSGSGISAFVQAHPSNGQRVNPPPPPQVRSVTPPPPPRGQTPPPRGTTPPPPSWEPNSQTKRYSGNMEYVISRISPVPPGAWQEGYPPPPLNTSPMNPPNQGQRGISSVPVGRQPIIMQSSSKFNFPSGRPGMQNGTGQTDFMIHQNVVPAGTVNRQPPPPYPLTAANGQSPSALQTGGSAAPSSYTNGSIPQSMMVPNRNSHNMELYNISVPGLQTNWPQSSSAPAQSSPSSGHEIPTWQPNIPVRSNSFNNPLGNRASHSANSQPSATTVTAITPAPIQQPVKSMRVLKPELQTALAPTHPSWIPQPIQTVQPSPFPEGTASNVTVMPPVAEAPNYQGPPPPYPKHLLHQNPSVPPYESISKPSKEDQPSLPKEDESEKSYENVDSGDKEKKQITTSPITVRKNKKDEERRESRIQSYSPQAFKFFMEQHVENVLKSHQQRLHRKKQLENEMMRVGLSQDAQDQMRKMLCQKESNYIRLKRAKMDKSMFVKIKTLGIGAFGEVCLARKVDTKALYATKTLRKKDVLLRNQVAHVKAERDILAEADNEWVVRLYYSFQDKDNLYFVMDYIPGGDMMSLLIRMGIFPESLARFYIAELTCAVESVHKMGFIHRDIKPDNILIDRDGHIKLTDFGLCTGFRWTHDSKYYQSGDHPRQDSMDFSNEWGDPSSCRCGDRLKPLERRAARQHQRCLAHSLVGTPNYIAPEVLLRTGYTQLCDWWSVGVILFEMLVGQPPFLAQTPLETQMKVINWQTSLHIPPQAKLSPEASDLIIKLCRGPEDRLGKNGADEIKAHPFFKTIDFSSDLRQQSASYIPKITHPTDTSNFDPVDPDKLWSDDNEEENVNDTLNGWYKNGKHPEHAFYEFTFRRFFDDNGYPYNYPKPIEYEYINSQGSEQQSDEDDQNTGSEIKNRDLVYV
Sequence of LATS1 (Q7L9L4 whole entry partner, looked up): as the sequence (Q7L9L4 whole entry partner, the tested form may be a part) above

Sequence of Human LATS1 kinase domain protein (O95835 whole entry, looked up, the tested form may be a part): as the sequence (O95835 whole entry, looked up) above
Sequence of Human LATS1 kinase domain protein (Q7L9L4 whole entry partner, looked up, the tested form may be a part): as the sequence (Q7L9L4 whole entry partner, the tested form may be a part) above

| SMILES | IC50 [1] | IC50 [2] | EC50 [3] | IC50 [4] | IC50 [5] | IC50 (LATS1) |
| --- | --- | --- | --- | --- | --- | --- |
| CN(C)CCC(C)(C)Nc1nc(-c2ccncn2)nc2cnccc12 [Example 308, N^1,N^1,3-trimethyl-N^3-(2-(pyrimidin-4-yl)pyrido[3,4-d]pyrimidin-4-yl)butane-1,3-diamine] | 68.7 nM | > 10000 nM | – | – | – | – |
| CC(C)(N)CNc1cc(-c2ccncc2)nc2cnccc12 [Example 295, 2-methyl-N1-(2-(pyridin-4-yl)-1,7-naphthyridin-4-yl)propane-1,2-diamine] | 10 nM | > 10000 nM | – | – | – | – |
| CN(c1cc(-c2ccncc2)nc2cnccc12)C(C)(C)C [Example 306, N-(tert-butyl)-N-methyl-2-(pyridin-4-yl)-1,7-naphthyridin-4-amine] | 1.2 nM | 1000 nM | – | – | – | – |
| CC(C)(C)Nc1nc(-c2ccncc2)nc2cnccc12 [Example 59, N-tert-butyl-2-(pyridin-4-yl)pyrido[3,4-d]pyrimidin-4-amine] | – | 1100 nM | 341 nM | 19 nM | 4 nM | 1 nM |
| CC(C)(COCCO)Nc1nc(-c2ccncc2)nc2cnccc12 [Example 11, 2-(2-methyl-2-{[2-(pyridin-4-yl)pyrido[3,4-d]pyrimidin-4-yl]amino}propoxy)ethan-1-ol] | – | – | 1430 nM | 646 nM | 12 nM | 3 nM |
| Cc1n[nH]cc1-c1nc(NC(C)(C)CCN(C)C)c2ccncc2n1 [Example 309, N^1,N^1,3-trimethyl-N^3-(2-(3-methyl-1H-pyrazol-4-yl)pyrido[3,4-d]pyrimidin-4-yl)butane-1,3-diamine] | 0.8 nM | 2000 nM | – | – | – | – |
| CC1(Nc2cc(-c3ccncc3)nc3cnccc23)CCC1 [Example 300, N-(1-methylcyclobutyl)-2-(pyridin-4-yl)-1,7-naphthyridin-4-amine] | 1.2 nM | 900 nM | – | – | – | – |
| OCC1(Nc2nc(-c3ccncc3)nc3cnccc23)CCC1 [Example 101, (1-{[2-(pyridin-4-yl)pyrido[3,4-d]pyrimidin-4-yl]amino}cyclobutyl)methanol] | – | 3300 nM | > 20000 nM | 5400 nM | 30 nM | 5 nM |
| FC(F)(F)[C@H]1CN(c2nc(-c3ccncc3)nc3cnccc23)CCN1 [Example 319, (R)-2-(pyridin-4-yl)-4-(3-(trifluoromethyl)piperazin-1-yl)pyrido[3,4-d]pyrimidine] | 58.1 nM | > 10000 nM | – | – | – | – |
| CC(C)(N)C(C)(C)Nc1nc(-c2ccncc2)nc2cnccc12 [Example 320, 2,3-dimethyl-N^2-(2-(pyridin-4-yl)pyrido[3,4-d]pyrimidin-4-yl)butane-2,3-diamine] | 0.7 nM | 1000 nM | – | – | – | – |
| FC(F)(F)C1(Nc2cc(-c3ccncc3)nc3cnccc23)CCC1 [Example 294, 2-(pyridin-4-yl)-N-(1-(trifluoromethyl)cyclobutyl)-1,7-naphthyridin-4-amine] | 4.5 nM | 1100 nM | – | – | – | – |
| CC(C)(CC(N)=O)Nc1nc(-c2ccncc2)nc2cnccc12 [Example 318, 3-methyl-3-((2-(pyridin-4-yl)pyrido[3,4-d]pyrimidin-4-yl)amino)butanamide] | 1.8 nM | 3100 nM | – | – | – | – |
| NCCNc1nc(-c2ccncc2)nc2cnccc12 [Example 313, N-(2-(pyridin-4-yl)pyrido[3,4-d]pyrimidin-4-yl)ethane-1,2-diamine] | 3.8 nM | 7800 nM | – | – | – | – |
| CC(Nc1nc(-c2ccncc2)nc2cnccc12)C(F)(F)F (stereo not drawn) [Example 4, 2-(pyridin-4-yl)-N-(1,1,1-trifluoropropan-2-yl)pyrido[3,4-d]pyrimidin-4-amine] | – | > 10000 nM | 2530 nM | 1150 nM | 1 nM | 1 nM |
| CC(C)(N)CNc1nc(-c2ccncc2)nc2cnccc12 [Example 312, 2-methyl-N^1-(2-(pyridin-4-yl)pyrido[3,4-d]pyrimidin-4-yl)propane-1,2-diamine] | 2.4 nM | 7700 nM | – | – | – | – |
| CC1(Nc2cc(-c3ccncn3)nc3cnccc23)CCC1 [Example 307, N-(1-methylcyclobutyl)-2-(pyrimidin-4-yl)-1,7-naphthyridin-4-amine] | 1.9 nM | 1300 nM | – | – | – | – |
| CC(C)(CN)CNc1nc(-c2ccncc2)nc2cnccc12 [Example 317, 2,2-dimethyl-N^1-(2-(pyridin-4-yl)pyrido[3,4-d]pyrimidin-4-yl)propane-1,3-diamine] | 0.8 nM | 3200 nM | – | – | – | – |
| CN(CCC(C)(C)N)c1nc(-c2ccncc2)nc2cnccc12 [Example 315, N^1,3-dimethyl-N^1-(2-(pyridin-4-yl)pyrido[3,4-d]pyrimidin-4-yl)butane-1,3-diamine] | 5 nM | 5700 nM | – | – | – | – |
| CC(C)(CN)CNc1cc(-c2ccncc2)nc2cnccc12 [Example 301, 2,2-dimethyl-N1-(2-(pyridin-4-yl)-1,7-naphthyridin-4-yl)propane-1,3-diamine] | 5.2 nM | > 10000 nM | – | – | – | – |
| CC1(C)CN(c2cc(-c3ccncc3)nc3cnccc23)CCN1 [Example 298, 4-(3,3-dimethylpiperazin-1-yl)-2-(pyridin-4-yl)-1,7-naphthyridine] | 59 nM | – | – | – | – | – |
| CC(CN)CNc1cc(-c2ccncc2)nc2cnccc12 (stereo not drawn) [Example 304, 2-methyl-N^1-(2-(pyridin-4-yl)-1,7-naphthyridin-4-yl)propane-1,3-diamine] | 9.6 nM | > 10000 nM | – | – | – | – |
| CCOC(=O)C(C)(C)Nc1nc(-c2ccncc2)nc2cnccc12 [Example 322, ethyl 2-methyl-2-((2-(pyridin-4-yl)pyrido[3,4-d]pyrimidin-4-yl)amino)propanoate] | 29.2 nM | – | – | – | – | – |
| Cc1n[nH]c(C)c1-c1nc(NC(C)(C)CCN(C)C)c2ccncc2n1 [Example 332, N^3-(2-(3,5-dimethyl-1H-pyrazol-4-yl)pyrido[3,4-d]pyrimidin-4-yl)-N^1,N^1,3-trimethylbutane-1,3-diamine] | 7.6 nM | – | – | – | – | – |
| CN(C)C(C)(C)CNc1nc(-c2ccncc2)nc2cnccc12 [Example 325, N^2,N^2,2-trimethyl-N^1-(2-(pyridin-4-yl)pyrido[3,4-d]pyrimidin-4-yl)propane-1,2-diamine] | 3.7 nM | – | – | – | – | – |
| CN(C)CCC(C)(C)Nc1nc(-c2ccnc(F)c2)nc2cnccc12 [Example 331, N^3-(2-(2-fluoropyridin-4-yl)pyrido[3,4-d]pyrimidin-4-yl)-N^1,N^1,3-trimethylbutane-1,3-diamine] | 10.5 nM | – | – | – | – | – |
| CC1(Nc2cc(-c3ccncc3)nc3cnccc23)CC1 [Example 297, N-(1-methylcycloropyl)-2-(pyridin-4-yl)-1,7-naphthyridin-4-amine] | 7.5 nM | > 10000 nM | – | – | – | – |
| CC(C)(Nc1nc(-c2ccncc2)nc2cnccc12)C(N)=O [Example 326, 2-methyl-2-((2-(pyridin-4-yl)pyrido[3,4-d]pyrimidin-4-yl)amino)propanamide] | 57.2 nM | – | – | – | – | – |
| Cn1nccc1-c1nc(NC2(C)CCC2)c2ccncc2n1 [Example 186, 2-(1-methyl-1H-pyrazol-5-yl)-N-(1-methylcyclobutyl)pyrido[3,4-d]pyrimidin-4-amine] | – | – | > 20000 nM | – | 50 nM | 9 nM |
| CN(C)CC(C)(C)CN(C)c1nc(-c2ccncc2)nc2cnccc12 [Example 329, N^1,N^1,N^3,2,2-pentamethyl-N^3-(2-(pyridin-4-yl)pyrido[3,4-d]pyrimidin-4-yl)propane-1,3-diamine] | 3 nM | – | – | – | – | – |
